# Laboratory results taken from patent publication US20060275333A1, “Composition with beads for treatment of contact dermatitis” (Humco Holding Group, Inc., priority 2005, published 2006).
# What was measured:
# [1] = system: IL-6; test: IL-6 release from Epiderm artificial skin, ELISA of culture media; format: cell-based, human
# Description: (§1) When urushiol is applied to human skin it can elicit the synthesis and release of several key inflammatory cytokines, including IL-1α, IL-1β, IL-6, and IL-8. Release of these cytokines also has been noted in cultured keratinocyte models after the application of urushiol. IL-1α and IL-6 are synthesized and stored in keratinocytes and have been identified as mediators of skin irritation and inflammation. Release of these two cytokines can be measured directly in tissue culture media by a calorimetric enzyme linked immunosorbent assay (ELISA). In such measurements, antibodies covalently linked to a solid support will bind any IL-1α or IL-6 present in spent culture media samples. A second antibody that is covalently attached to an acetylcholinesterase enzyme will in turn detect the bound cytokines. Upon addition of an appropriate color substrate the acetylcholinesterase enzyme will in turn detect the bound cytokines. Upon addition of an appropriate color substrate the acetylcholinesterase enzyme will generate a colored end product that can be measured spectrophotometrically.
# Testing of the invention herein was conducted using an artificial skin product designed for toxicity testing and sold under the name Epiderm® by Mat Tek Corporation of Ashland, Massachusetts. This artificial skin product consists of normal human-derived epidermal keratinocytes that have been cultured to form a multilayered, highly differentiated model of the human epidermis. […] Markers of mature epidermis specific differentiation such as profilaggrin, the K1/K10 cytokeratin pair, involucrin, and type I epidermal transglutaminase have been localized in this product. The product is also mitotically and metabolically active.
# The Epidermic tissue samples were stored at 2-8° C. until used. The analyses were conducted with an ELISA test kit from Cayman Chemicals of Ann Arbor, Michigan, with all buffers and reagents being prepared according to the kit's instructions and allowed to come to room temperature. Prior to use, the tissues were removed from the agarose shipping tray and placed into a 6-well plate containing 1.0 ml of assay medium from the test kit, at 37±2° C. The tissues were allowed to incubate for one hour at 37±2° C. and 5±1% CO2. After this initial incubation, the assay medium was replaced with 1 ml of fresh medium at 37±2° C. […] The collected culture media were stored at −75±5° C. until analyzed for IL-1α and IL-6 levels. The IL-1α and IL-6 levels were determined by comparison with a standard curve generated from samples having known concentrations of these two cytokines. […] Absorbance values for the test materials and untreated samples were then used to estimate the amount of cytokine present in each sample.
# [2] = system: IL-1α; test: IL-1α release from Epiderm artificial skin, ELISA of culture media; format: cell-based, human
# Description: as §1, with “A second antibody that is covalently attached to an acetylcholinesterase enzyme will in turn detect the bound cytokines. Upon addition of an appropriate color substrate the acetylcholinesterase enzyme will in turn detect the bound cytokines.” left out, “spectrophotometrically. […]” for “spectrophotometrically.”
# The Epidermic tissue samples were stored at 2-8° C. until used. […] The collected culture media were stored at −75±5° C. until analyzed for IL-1α and IL-6 levels. The IL-1α and IL-6 levels were determined by comparison with a standard curve generated from samples having known concentrations of these two cytokines. […] Absorbance values for the test materials and untreated samples were then used to estimate the amount of cytokine present in each sample.
# [3] = system: Epiderm normal human-derived epidermal keratinocytes; test: MTT assay of tissue viability of Epiderm artificial skin; format: cell-based; settings: after the 48-hour time period; untreated tissues = 100%; same test materials
# Description: The efficacy of nonylphenol ethoxylate on urushiol-induced dermatitis was evaluated by ELISA and MTT techniques. The MTT evaluation was based on a technique first described in Mosmann, T., “Rapid calorimetric assay for cellular growth and survival: application to proliferation and cytotoxicity assays,” J. Immunol. Methods, Dec. 16, 1983, 65(1-2):55-63. The analysis is based on the compound [3-(4,5-dimethylthiazol-2-yl)-2,5-diphenyltetrazolium bromide], commonly referred to as MTT. As reported by Mosmann, mitochondrial dehydrogenase enzyme from viable cells can cleave the tetrazolium rings of the pale yellow MTT and form dark blue formazin crystals. The crystals cannot permeate cell membranes, and thus tend to accumulate within healthy cells. […] The formazin is extracted with isopropanol and measured spectrophotometrically. […]
# Epidermal irritation often is associated with a loss of viable ketinocytes. Therefore, changes in tissue viability after exposure to urushiol and the test were assessed using the MTT assay described above. […] After the extraction, a 200 μl sample from each well of the isopropanol/MTT mixture was transferred to a 96-well plate and the absorbance of the sample was read at 540 nm with a plate reader using 200 μl of isopropanol as the blank.
# The mean MTT absorbance value for the untreated tissues was calculated and used to represent 100% tissue viability. […]
# [4] = exposed to 50 micrograms of purified urushiol; cited from earlier work
# [5] = 4 Hours, Epiderm tissue, 100 μl test material, Urushiol = control lotion 0.05% 2-deoxy-urushiol, Nonylphenol Ethoxylate = control lotion + 0.2% w/v nonyl phenyl ethoxylate
structure (smiles),measurement,setting,value
CCCCCCCCCCCCCCCc1cccc(O)c1O [Urushiol],IL-6 Accumulation in Cell Culture Media,[1]; [5],1.9 ± 0.4 pg/mL
same,IL-6 Accumulation in Cell Culture Media,"[1]; 12 Hours, same test materials",5.1 ± 0.4 pg/mL
same,IL-6 Accumulation in Cell Culture Media,"[1]; 24 Hours, same test materials",9.4 ± 0.3 pg/mL
same,IL-6 Accumulation in Cell Culture Media,"[1]; 48 Hours, same test materials",16.4 ± 1.4 pg/mL
same,IL-1α Accumulation in Cell Culture Media,[2]; [5],16.1 ± 5.2 pg/mL
same,IL-1α Accumulation in Cell Culture Media,"[2]; 12 Hours, same test materials",32.6 ± 6.3 pg/mL
same,Percent Viability (MTT Assay),[3],88 ± 5%
same,adult Americans who get a rash,[4],80-90%
